The values that follow come from US6875761B2 (Eisai Co., Ltd., priority 1997, dated 2005).

One assay addresses T1, serotonin 1A receptor (Rattus norvegicus, UniProt P19327).
T1 construct: To the receptor fraction of the hippocampus were added a test compound and 0.5 nM of [^3H]; 8-hydroxy-dipropylaminotetralin; from tissue; host or cells: rat hippocampus membrane fraction
T1 sequence (P19327 1-422): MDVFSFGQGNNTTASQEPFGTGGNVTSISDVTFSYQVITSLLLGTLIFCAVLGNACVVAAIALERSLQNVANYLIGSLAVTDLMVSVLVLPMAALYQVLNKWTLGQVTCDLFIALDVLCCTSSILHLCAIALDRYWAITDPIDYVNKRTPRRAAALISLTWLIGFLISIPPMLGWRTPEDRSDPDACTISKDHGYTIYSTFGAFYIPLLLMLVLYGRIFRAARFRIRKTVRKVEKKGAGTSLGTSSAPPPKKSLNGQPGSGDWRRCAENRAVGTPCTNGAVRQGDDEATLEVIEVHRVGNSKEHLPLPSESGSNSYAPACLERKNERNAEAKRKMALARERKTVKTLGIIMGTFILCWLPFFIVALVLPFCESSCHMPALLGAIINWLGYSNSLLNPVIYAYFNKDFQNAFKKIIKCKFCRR
As to the kind of experiment: Binding test on [3H] 8-hydroxy-dipropylaminotetralin, hippocampus receptor fraction. Set-up: species or system SD rats. To be noted: rat hippocampus receptor fraction, 0.5 nM [3H] 8-OH-DPAT, room temperature 30 min; read-out: 5HT1.

The target of a further assay is T2, serotonin 2 receptor (Rattus norvegicus, UniProt P14842).
T2 construct: To the receptor fraction of the cerebral cortex were added a test compound and 0.3 nM of [^3H] ketanserin; from tissue; host or cells: rat cerebral cortex membrane fraction
As to the kind of experiment: Binding test on [3H] ketanserin, cerebral cortex receptor fraction. Set-up: species or system SD rats. To be noted: 0.3 nM [3H] ketanserin, 37° C. 15 min, read-out: 5HT2.

Where a name gives a salt, the structure may show the parent alone.

T2 sequence (P14842 whole entry): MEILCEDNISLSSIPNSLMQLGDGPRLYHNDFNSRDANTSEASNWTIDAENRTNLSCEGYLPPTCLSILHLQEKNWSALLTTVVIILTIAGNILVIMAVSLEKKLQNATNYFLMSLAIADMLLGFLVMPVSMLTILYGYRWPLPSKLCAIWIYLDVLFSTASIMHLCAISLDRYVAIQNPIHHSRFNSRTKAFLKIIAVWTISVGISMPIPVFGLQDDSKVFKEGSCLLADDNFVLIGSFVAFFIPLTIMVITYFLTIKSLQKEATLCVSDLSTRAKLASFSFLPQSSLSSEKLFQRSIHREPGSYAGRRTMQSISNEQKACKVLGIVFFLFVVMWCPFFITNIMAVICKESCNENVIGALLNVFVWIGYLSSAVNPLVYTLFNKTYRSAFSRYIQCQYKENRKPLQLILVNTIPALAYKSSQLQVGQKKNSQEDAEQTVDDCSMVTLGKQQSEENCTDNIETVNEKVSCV

Take `CCCC(=O)Nc1ccc(-c2cc3ccccc3c(N3CCN(CC)CC3)n2)cn1` [Example 128, 3-(2-propylcarbonylaminopyridin-5-yl)-1-(4-ethylpiperazin-1-yl)isoquinoline hydrochloride]: the values for the Ki on serotonin 1A receptor and at serotonin 2 receptor were 22.2 nM and 3 nM, respectively.
In the same order, the values of `CCN1CCN(c2nc(-c3ccc(OCCO)c(Cl)c3)cc3ccccc23)CC1` [Example 39, 3-[3-chloro-4-(2-hydroxyethoxy)phenyl]-1-(4-ethylpiperazin-1-yl)isoquinoline hydrochloride] are 26 nM and 4.9 nM.
Turning to `CCN1CCN(c2nc(-c3ccc(CC(C)(C)CO)cc3)cc3ccccc23)CC1` [Example 389, 1-(4-Ethylpiperazin-1-yl)-3-[4-(3-Hydroxy-2,2-Dimethylpropyl)Phenyl]Isoquinoline Oxalate], the Ki on serotonin 1A receptor was determined as 14.2 nM; at serotonin 2 receptor it was 7.3 nM.
Taken in the same sequence, the figures for `CCN1CCN(c2nc(-c3ccc(CCCO)cc3)cc3ccsc23)CC1` [Example 432, 7-(4-ethylpiperazin-1-yl)-5-[4-(3-hydroxypropyl)phenyl]thieno[2,3-c]pyridine hydrochloride] were 1.98 nM and 28.5 nM.
Taken in the same sequence, the figures for `CCCC(O)c1ccc(-c2cc3ccsc3c(N3CCN(CC)CC3)n2)cc1` (centres unmarked) [Example 446, 7-(4-ethylpiperazin-1-yl)-5-[4-(1-hydroxybutyl)phenyl]thieno[2,3-c]pyridine dihydrochloride] were 12.2 nM and 30 nM.
Taken in the same sequence, the figures for `CCN1CCN(c2nc(-c3ccc(OCCO)cc3)cc3cscc23)CC1` [Example 278, 4-(4-ethylpiperazin-1-yl)-6-[4-(2-hydroxyethoxy)phenyl]thieno-[3,4-c]pyridine oxalate] were 41.3 nM and 4.61 nM.
For `CCN1CCN(c2nc(-c3ccc(OCCCO)cc3)cc3ccsc23)CC1` [Example 434, 7-(4-ethylpiperazin-1-yl)-5-[4-(3-hydroxypropoxy)phenyl]thieno[2,3-c]pyridine dihydrochloride], the Ki came to 64.9 nM on serotonin 1A receptor and 60.5 nM at serotonin 2 receptor.
Taken in the same sequence, the figures for `CCC/C(=N\O)c1ccc(-c2cc3ccccc3c(N3CCN(CC)CC3)n2)cc1` [Example 380, 1-(4-Ethylpiperazin-1-yl)-3-[4-(1-Hydroxyiminobutyl)Phenyl]Isoquinoline] were 31.2 nM and 23 nM.
Turning to `CCN1CCN(c2nc(-c3ccc(N(C)C)cc3)cc3ccccc23)CC1` [Example 66, 3-[4-(N,N-Dimethylamino)Phenyl]-1-(4-Ethylpiperazin-1-Yl)Isoquinoline Dihydrochloride], the Ki on serotonin 1A receptor was determined as 52.7 nM; at serotonin 2 receptor, 21.6 nM.
Taken in the same sequence, the figures for `CCN1CCN(c2nc(-c3ccc(CCO)c(F)c3)cc3ccccc23)CC1` [Example 385, 1-(4-Ethylpiperazin-1-yl)-3-[3-Fluoro-4-(2-Hydroxyethyl)Phenyl]Isoquinoline Dihydrochloride] were 14.8 nM and 21.6 nM.
Taken in the same sequence, the figures for `CCN1CCN(c2nc(C3CCc4ccc(OC)cc43)cc3ccccc23)CC1` (centres unmarked) [Example 114, 3-(6-Methoxyindan-1-yl)-1-(4-ethylpiperazin-1-yl)isoquinoline Oxalate] were 167 nM and 49.9 nM.
In the same order, the values of `CCN1CCN(c2nc(-c3ccc(C(=O)CC(C)C)cc3)cc3ccsc23)CC1` [Example 272, 7-(1-ethylpiperazin-4-yl)-5-[4-(3-methylbutanoyl)phenyl]thieno[2,3-c]pyridine dihydrochloride] are 160 nM and 22.4 nM.
For `CCN1CCN(c2nc(-c3ccc(OC[C@@H](C)O)cc3)cc3ccccc23)CC1` [Example 403, 1-(4-ethylpiperazin-1-yl)-3-[4-(2-hydroxypropoxy)phenyl]isoquinoline Dihydrochloride], the figures for the Ki on serotonin 1A receptor and at serotonin 2 receptor were 28.4 nM and 0.78 nM, respectively.
Taken in the same sequence, the figures for `CCN1CCN(c2nc(C#Cc3ncccc3OCCO)cc3ccccc23)CC1` [Example 188, 1-(1-Ethylpiperazin-4-Yl)-3-[3-(2-Hydroxyethoxy)-2-Pyridyl]Ethynylisoquinoline] were 4.47 nM and 107 nM.
Taken in the same sequence, the figures for `CCN1CCN(c2nc(-c3ccc(S(=O)(=O)CC)nc3)cc3ccccc23)CC1` [Example 130, 3-[(2-Ethylsulfonylpyridin)-5-yl]-1-(4-Ethylpiperazin-1-yl)Isoquinoline Hydrochloride] were 24.4 nM and 17 nM.
Turning to `CCN1CCN(c2nc(NS(=O)(=O)c3ccccc3)cc3ccccc23)CC1` [Example 422, 3-benzenesulfoneamide-1-(4-ethylpiperazin-1-yl)isoquinoline], the Ki at serotonin 1A receptor was 5.32 nM; at serotonin 2 receptor it was 175 nM.
Turning to `CCN1CCN(c2nc(-c3ccc(C(=O)NCCO)cc3)cc3ccccc23)CC1` [Example 346, 1-(4-ethylpiperazin-1-yl)-3-{4-(N-(2-hydroxyethyl)carbamoyl]phenyl}isoquinoline dihydrochloride], the Ki is 31.8 nM at serotonin 1A receptor and 41.7 nM at serotonin 2 receptor.
In the same order, the values of `CCN1CCN(c2nc(-c3ccc(C#N)cc3)cc3ccccc23)CC1` [Example 62, 3-(4-Cyanophenyl)-1-(4-Ethylpiperazin-1-Yl)Isoquinoline Hydrochloride] are 14.8 nM and 4 nM.
Taken in the same sequence, the figures for `CCCS(=O)(=O)Nc1ccc(-c2cc3ccccc3c(N3CCN(CC)CC3)n2)cc1` [Example 72, 3-(4-Propylsulfonylaminophenyl)-1-(4-Ethylpiperazin-1-Yl)Isoquinoline Hydrochloride] were 15 nM and 3.6 nM.
Taken in the same sequence, the figures for `CCC(F)c1ccc(-c2cc3ccccc3c(N3CCN(CC)CC3)n2)cc1` (centres unmarked) [Example 5, 1-(4-ethylpiperazin-1-yl)-3-[4-(1-fluoropropyl)phenyl]isoquinoline Hydrochloride] were 21 nM and 2.2 nM.
As for `CCN1CCN(c2nc(-c3ccc(OCC(C)O)cc3)cc3ccoc23)CC1` (stereo in doubt) [Example 304, 7-(1-ethylpiperazin-4-yl)-5-[4-[(S)-2-hydroxypropoxy]phenyl)furo[2,3-c]pyridine dihydrochloride], the Ki turned out to be 15.4 nM on serotonin 1A receptor and 19.4 nM at serotonin 2 receptor.
In the same order, the values of `CCCC(=O)Nc1ncc(-c2cc3ccccc3c(N3CCN(CC)CC3)n2)cn1` [Example 174, 3-(2-Propylcarbonylaminopyrimidin-5-Yl)-1-(4-Ethylpiperazin-1-Yl)Isoquinoline Hydrochlroide] are 29.1 nM and 7.3 nM.
Taken in the same sequence, the figures for `CCN1CCN(c2nc(-c3ccc(C4=CCOCC4)cc3)cc3ccsc23)CC1` [Example 266, 5-[4-(5,6-dihydro-2H-pyran-4-yl)phenyl]-7-(4-ethylpiperazin-1-yl)thieno[2,3-c]pyridine Hydrochloride] were 97.3 nM and 13.8 nM.
As for `CCN1CCN(c2nc(-c3ccc(CCC(C)(C)O)cc3)cc3ccccc23)CC1` [Example 388, 1-(4-Ethylpiperazin-1-yl)-3-[4-(3-Hydroxy-3-Methylbutyl)Phenyl]Isoquinoline Dihydrochloride], the Ki at serotonin 1A receptor stood at 21.5 nM; on serotonin 2 receptor it was 0.7 nM.
As to `CCN1CCN(c2nc(CCCc3ccccc3OCCO)cc3ccccc23)CC1` [Example 110, 1-(1-Ethylpiperazin-4-yl)-3-[3-[2-(2-hydroxyethoxy)phenyl]propyl]isoquinoline], the Ki at serotonin 1A receptor amounted to 58.6 nM; on serotonin 2 receptor, 109 nM.
